Assay results reported in patent publication US7662767B2, “Polynucleotide intercalator interceptors and inhibitors” (Materials Evolution and Development USA, Inc., priority 2000, dated 2010).
“Also recorded” adds a separate entry of the source.

Legend:
[1] = tested on: Drosophila salivary gland polytene chromosome; assay: Removal of DNA binding stains from polytene chromosome bands by xanthine wash; set-up: species or system Drosophila melagaster; details: for Re-staining following Xanthine Exposure / Staining before Xanthine Exposure: 1 mM stain, 30 minutes; for Degree of Stain Removal, Exposure to AM (100 mM) / Degree of Stain Removal, Exposure to CAF (100 mM): 15 minute wash, static
Method: In another implementation, giant polytene chromosomes were prepared by the squash technique from the salivary gland of Drosophila melagaster larva The salivary gland was placed on a microscope slide, squashed with a glass cover slide, fixed with acidic acid, rinsed with distilled water, and allowed to dry (kindly provided by Linda Chadwell, UTHSCSA-IBT). Three known DNA intercalators, ethidium bromide (98% purity, Aldrich Chemical Company, Milwaukee, Wis.), doxorubicin (98%, Sigma Chemnical Company, St. Louis, Mo.), and acridine orange plus the minor groove binding DNA stain Hoechst 33258 (98%, ACROS Chemical Company, NJ) were prepared in distilled water at a concentration of 1 mM (for chemical structures see FIG. 4-1, where acridine orange (3,6-bis [dimethylamino] acridine) is shown in Panel A, ethidium bromide is shown in Panel B, doxorubicin is shown in Panel C, Hoechst 33258 is shown in Panel D). The slides with prepared chromosomes were immersed in these stains for a period of 30 minutes, rinsed with distilled water, and dried at room temperature. Fluorescence microscopic analysis was conducted at λex 360 nm and photomicrographs were conducted on a Zeiss Model 63 Microscope with a xenon source fluorescent emitter. Photomicrographs were taken using Kodak Gold 35 mm ASA 1600 speed film noting the position of one individual chromosome on the slide. The stained slides were then subjected to 100 mM caffeine or 100 mM aminophylline under static conditions for a period of 15 minutes, rinsed with distilled water, then allowed to dry at room temperature. The presence of the same individual unstained chromosome in the field was confirmed by phase contrast microscopy. The chromosome was viewed again under fluorescence microscopy at […], and color recorded. Slides were re-stained by immersion in the 1 mM stain for a period of 30 minutes, rinsed with distilled water, and dried at room temperature, and the same individual chromosome was examined by fluorescence microscopy and the fluorescence color recorded.
FIG. 4-3 depicts three photomicrographs of the same Drosophila polytene chromosome: after staining with the DNA minor groove binder Hoechst 33258 dye (Panel A), after rinsing with CAF for 15 minutes (Panel B), and a phase contrast verification of the presence of the chromosome after the CAF rinse (Panel C). Table 4-4 summarizes the results from the experiments using caffeine (CAF) and aminophylline (AM) to remove the following DNA intercalators: doxorubicin, ethidium bromide, acridine orange, and the DNA minor groove binder Hoechst 33258 from their binding sites within polytene chromosomes. […] With all DNA intercalators, the staining of chromosome bands was intense before the xanthine rinses and was again intense following re-staining.

[2] = Absorbance binding spectra of doxorubicin titrated with caffeine or chlorophyllin; details: 10 μM doxorubicin
[3] = Optical absorbance titration of chlorophyllin with acridine orange; assay type: binding; details: AO:chlorophyllin ratio between 0.1 and 30
Text: The invention is not limited to the use of xanthines as interceptor molecules. For example, chlorophyllin and porphyrins may be used as a binding agent to intercalator molecules. FIG. 2-3 shoes the optical absorbance spectra titrating cholorphyllin with increasing concentraitons of acridine orange. The selected spectra denoting important transitions within the titration series are denoted by the bold lines. At AO:chlorophyllin ratio between 0.1 and 30, prevalent peaks occur at λabs of 415 nm for chlorophyllin, 475 nm, and 492 nm. These later peaks correspond to the prevalent absorbance peaks found at concentrations of AO at 10 μM and higher concentrations. […] Thus, other compounds may be used as interceptors such as, but not limited to porphyrins, purines, pyrimidines, polynucleotides and uric acid.

Degree of Stain Removal, Exposure to AM (100 mM) ([1]; listed as doxorubicin) | Compound | Re-staining following Xanthine Exposure [1] | Staining before Xanthine Exposure [1] | Degree of Stain Removal, Exposure to AM (100 mM) [1] | Degree of Stain Removal, Exposure to CAF (100 mM) [1] | binding to doxorubicin [2] | complexation with acridine orange [3]
only moderately removed | COc1cccc2c1C(=O)c1c(O)c3c(c(O)c1C2=O)C[C@@](O)(C(=O)CO)C[C@@H]3O[C@H]1C[C@H](N)[C@H](O)[C@H](C)O1 [Doxorubicin, doxorubicin] | Complete | Banding | Moderate | completely removed; also recorded: Complete | – | –
– | CN1CCN(c2ccc3[nH]c(-c4ccc5[nH]c(-c6ccc(O)cc6)nc5c4)nc3c2)CC1 [Hoechst 33258] | Complete | Banding | apparently complete removal | apparently complete removal | – | –
– | chlorophyllin | – | – | – | – | doxorubicin can be bound to chlorophyllin | complexes with acridine orange
